Experiments:
[1] = target: T1, human recombinant serotonin (5-Hydroxytryptamine) 5-HT2C receptor (Homo sapiens, UniProt P28335); assay: Serotonin 5-HT2C radioligand binding ([3H]Mesulergine); details: compound at 0.1 μM; read-out: Percentage inhibition of ligand binding, Serotonin (0.1 μM) 5-HT2C
T1 construct: expressed in transfected cells; host or cells: Chinese hamster ovary (CHO) K1 cells
T1 sequence (P28335 33-458): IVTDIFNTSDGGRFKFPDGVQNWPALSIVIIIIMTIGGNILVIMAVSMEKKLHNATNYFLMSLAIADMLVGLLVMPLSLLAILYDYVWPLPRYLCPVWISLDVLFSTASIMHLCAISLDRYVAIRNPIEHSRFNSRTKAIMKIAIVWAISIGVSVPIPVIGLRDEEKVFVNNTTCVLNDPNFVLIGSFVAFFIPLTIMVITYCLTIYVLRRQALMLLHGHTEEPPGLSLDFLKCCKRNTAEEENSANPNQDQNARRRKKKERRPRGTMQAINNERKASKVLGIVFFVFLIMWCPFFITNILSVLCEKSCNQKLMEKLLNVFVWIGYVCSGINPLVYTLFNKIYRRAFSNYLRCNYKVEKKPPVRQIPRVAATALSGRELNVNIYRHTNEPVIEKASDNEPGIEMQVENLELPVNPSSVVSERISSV
Method: To evaluate in radioligand binding assays the activity of compounds of the invention, human recombinant serotonin (5-Hydroxytryptamine) 5-HT2C receptor expressed in Chinese hamster ovary (CHO) K1 cells (Wolf, W. et al, J. Neurochem. 69:1449, 1997) in a modified Tris-HCl buffer (50 mM Tris-HCl, pH 7.4, 0.1% Ascorbic Acid, 10 μM Pargyline) was used. Compounds of the invention were incubated with 1 nM [^3H]Mesulergine for 60 min at 25° C. Non-specific binding was estimated in the presence of 1 μM Mianserin. Receptor proteins were filtered and washed, the filters were then counted to determine [^3H]Mesulergine specifically bound. Compounds were screened at 1 μM or lower, using 1% DMSO as vehicle. Biochemical assay results are presented as the percent inhibition of specific binding in Table 4.

[2] = target: T2, human recombinant adrenergic α2A receptor (Homo sapiens, UniProt P08913); assay: Adrenergic α2A radioligand binding ([3H]MK-912); details: compound at 0.1 μM; read-out: Percentage inhibition of ligand binding, Adrenergic (0.1 μM) a2A
T2 construct: expressed in transfected cells; host or cells: insect Sf9 cells
T2 sequence (P08913 1-465): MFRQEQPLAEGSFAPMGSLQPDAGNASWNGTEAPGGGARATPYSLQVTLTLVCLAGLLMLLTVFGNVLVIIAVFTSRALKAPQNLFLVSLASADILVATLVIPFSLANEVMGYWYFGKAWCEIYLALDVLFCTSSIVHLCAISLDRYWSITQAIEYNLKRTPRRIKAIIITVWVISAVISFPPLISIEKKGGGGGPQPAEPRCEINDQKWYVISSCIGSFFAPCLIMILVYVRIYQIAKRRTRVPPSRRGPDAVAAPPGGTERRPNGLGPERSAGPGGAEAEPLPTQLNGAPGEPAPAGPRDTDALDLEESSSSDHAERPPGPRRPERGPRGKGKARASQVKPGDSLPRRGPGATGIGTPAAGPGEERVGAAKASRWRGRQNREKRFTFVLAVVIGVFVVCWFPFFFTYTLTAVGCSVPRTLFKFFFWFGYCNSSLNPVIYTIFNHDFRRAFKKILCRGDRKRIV
Method: To evaluate in radioligand binding assays the activity of compounds of the invention, human recombinant adrenergic α2A receptor expressed in insect Sf9 cells (Uhlen, S. et al, J. Pharmacol. Exp. Ther. 271:1558, 1994) in a modified Tris-HCl buffer (50 mM Tris-HCl, pH 7.4, 12.5 mM MgCl2, 2 mM EDTA) was used. Compounds of invention were incubated with 1 nM […] for 60 min at 25° C. MK912 is (2S-trans)-1,3,4,5′,6,6′,7,12b-octahydro-1′,3′-dimethyl-spiro[2H-benzofuro[2,3-a]quinolizine-2,4′(111)-pyrimidin]-2′(3′H)-one hydrochloride Non-specific binding was estimated in the presence of 10 μM WB-4101 (2-(2,6-Dimethoxyphenoxyethyl)aminomethyl-1,4-benzodioxane hydrochloride). Receptor proteins were filtered and washed, the filters were then counted to determine [^3H]MK-912 specifically bound. Compounds were screened at 1 μM or lower, using 1% DMSO as vehicle. Biochemical assay results are presented as the percent inhibition of specific binding in Table 3.

[3] = target: T3, rat adrenergic α1B receptor (Rattus norvegicus, UniProt P15823); assay: Adrenergic α1B radioligand binding ([3H]Prazosin); design: species or system Wistar Rat; details: compound at 0.1 μM; read-out: Percentage inhibition of ligand binding, Adrenergic (0.1 μM) a1B
T3 construct: rat adrenergic α1B receptor obtained from Wistar Rat liver; from tissue; host or cells: Wistar Rat liver
T3 sequence (P15823 1-515): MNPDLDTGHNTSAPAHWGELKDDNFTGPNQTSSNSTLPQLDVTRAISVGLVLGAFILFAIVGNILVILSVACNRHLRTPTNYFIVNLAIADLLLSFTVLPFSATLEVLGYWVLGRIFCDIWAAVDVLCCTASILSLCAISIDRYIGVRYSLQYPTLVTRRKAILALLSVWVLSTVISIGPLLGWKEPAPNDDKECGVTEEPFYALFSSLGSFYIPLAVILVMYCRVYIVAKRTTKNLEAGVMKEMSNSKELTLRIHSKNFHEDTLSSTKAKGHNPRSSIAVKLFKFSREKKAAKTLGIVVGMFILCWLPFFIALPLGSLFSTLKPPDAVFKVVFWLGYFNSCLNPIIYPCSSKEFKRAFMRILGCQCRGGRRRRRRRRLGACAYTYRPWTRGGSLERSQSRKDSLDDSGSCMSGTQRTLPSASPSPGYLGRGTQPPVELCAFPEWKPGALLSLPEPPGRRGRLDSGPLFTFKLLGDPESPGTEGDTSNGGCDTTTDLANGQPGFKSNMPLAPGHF
Method: To evaluate in radioligand binding assays the activity of compounds of the invention, rat adrenergic α1B receptor obtained from Wistar Rat liver (Garcia-S'ainz, J. et al, Biochem. Biophys. Res. Commun. 186:760, 1992; Michel, A. et al, Br. J. Pharmacol. 98:883, 1989) in a modified Tris-HCl buffer (50 mM Tris-HCl buffer, pH 7.4, 0.5 mM EDTA) was used. Compounds of the invention were incubated with 0.25 nM [^3H]Prazosin for 60 min at 25° C. Non-specific binding was estimated in the presence of 10 μM phentolamine. Receptor proteins were filtered and washed, the filters were then counted to determine [^3H]Prazosin specifically bound. Compounds were screened at 1 μM or lower, using 1% DMSO as vehicle. Biochemical assay results are presented as the percent inhibition of specific binding in Table 3.

Row | SMILES | inhibition at 0.1 µM [1] | inhibition at 0.1 µM [2] | inhibition at 0.1 µM [3]
1 | Cc1ccc2c(c1)c1c(n2C)C(C)(CCc2nc(-c3ccccc3)cs2)CN(C)C1 (stereo not drawn) [Compound 48] | 25% | 2% | 20%
2 | C#CCC1(C)CN(C)Cc2c1n(C)c1ccc(C)cc21 (stereo not drawn) [Compound 47, 2,4,5,8-tetramethyl-4-(prop-2-ynyl)-2,3,4,5-tetrahydro-1H-pyrido[4,3-b]indole] | 19% | 15% | 34%
